Test results from US6770597B2, “Benzohydrazide derivatives as herbicides and desiccant compositions containing them” (Ishihara Sangyo Kaisha, Ltd., priority 2002, dated 2004).

Columns and labels:
Type in all cases: in vivo
[1] = system: barnyardgrass (Echinochloa crus-galli, ECHCG); test: Greenhouse herbicide screen, post-emerge application, phytotoxicity rating; details: POST emergent, 14 days after application, scale 0-100
Procedure, shortened: (§1)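 Scoring at 14 days used a 0–100 scale, 100 being all plants dead, for weed control and crop injury alike. Rates ranged from 15 to 1000 g ai/ha, applied in acetone at 187 l/ha by track sprayer. Post-emerge treatment hit 2–3 leaf plants; pre-emerge treatment hit soil seeded one day earlier.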

[2] = system: cocklebur (Xanthium strumarium, XANST); test: as above; details: POST emergent, 14 days after application, scale 0-100
Procedure, shortened: as §1

[3] = system: common ragweed (Ambrosia artemisiifolia L., AMBEL); test: as above; details: POST emergent, 14 days after application, scale 0-100
Procedure, shortened: as §1

[4] = system: green foxtail (Setaria viridis, SETVI); test: as above; details: POST emergent, 14 days after application, scale 0-100
Procedure, shortened: as §1

[5] = system: ivyleaf morningglory (Ipomoea hederacea, IPOHE); test: as above; details: POST emergent, 14 days after application, scale 0-100
Procedure, shortened: as §1

[6] = system: johnsongrass (Sorghum halepense, SORHA); test: as above; details: POST emergent, 14 days after application, scale 0-100
Procedure, shortened: as §1

[7] = system: lambsquarters (Chenopodium album, CHEAL); test: as above; details: POST emergent, 14 days after application, scale 0-100
Procedure, shortened: as §1

[8] = system: large crabgrass (Digitaria sanguinalis, DIGSA); test: as above; details: POST emergent, 14 days after application, scale 0-100
Procedure, shortened: as §1

[9] = system: redroot pigweed (Amaranthus retrofiexus, AMARE); test: as above; details: POST emergent, 14 days after application
Procedure, shortened: as §1

[10] = system: sicklepod (Cassia obtusifolia, CASOB); test: as above; details: POST emergent, 14 days after application, scale 0-100
Procedure, shortened: as §1

[11] = system: velvetleaf (Abutilon theophrasti, ABUTH); test: as above; details: POST emergent, 14 days after application, scale 0-100
Procedure, shortened: as §1

[12] = system: field corn (Zea mays L., var. Dekalb 535, CORN); test: Greenhouse herbicide screen, post-emerge application, crop damage rating; details: POST emergent, 14 days after application, scale 0-100
Procedure, shortened: as §1

[13] = system: upland rice (Oryza sp., var.Cocodrie, RICE); test: as above; details: POST emergent, 14 days after application, scale 0-100
Procedure, shortened: as §1

[14] = system: barnyardgrass (Echinochloa crus-galli, ECHCG); test: Greenhouse herbicide screen, pre-emerge application, phytotoxicity rating; details: PRE emergent, 14 days after application, rating scale 0-100
Procedure, shortened: as §1

[15] = system: cocklebur (Xanthium strumarium, XANST); test: as above; details: PRE emergent, 14 days after application, rating scale 0-100
Procedure, shortened: as §1

[16] = system: common ragweed (Ambrosia artemisiifolia L., AMBEL); test: as above; details: PRE emergent, 14 days after application, rating scale 0-100
Procedure, shortened: as §1

[17] = system: green foxtail (Setaria viridis, SETVI); test: as above; details: PRE emergent, 14 days after application, rating scale 0-100
Procedure, shortened: as §1

[18] = system: ivyleaf morningglory (Ipomoea hederacea, IPOHE); test: as above; details: PRE emergent, 14 days after application, rating scale 0-100
Procedure, shortened: as §1

[19] = system: johnsongrass (Sorghum halepense, SORHA); test: as above; details: PRE emergent, 14 days after application, rating scale 0-100
Procedure, shortened: as §1

[20] = system: lambsquarters (Chenopodium album, CHEAL); test: as above; details: PRE emergent, 14 days after application, rating scale 0-100
Procedure, shortened: as §1

[21] = system: large crabgrass (Digitaria sanguinalis, DIGSA); test: as above; details: PRE emergent, 14 days after application, rating scale 0-100
Procedure, shortened: as §1

[22] = system: redroot pigweed (Amaranthus retrofiexus, AMARE); test: as above; details: PRE emergent, 14 days after application, rating scale 0-100
Procedure, shortened: as §1

[23] = system: sicklepod (Cassia obtusifolia, CASOB); test: as above; details: PRE emergent, 14 days after application, rating scale 0-100
Procedure, shortened: as §1

[24] = system: velvetleaf (Abutilon theophrasti, ABUTH); test: as above; details: PRE emergent, 14 days after application, rating scale 0-100
Procedure, shortened: as §1

[25] = system: field corn (Zea mays L., var. Dekalb 535, CORN); test: Greenhouse herbicide screen, pre-emerge application, crop damage rating; details: PRE emergent, 14 days after application, rating scale 0-100
Procedure, shortened: as §1

[26] = system: upland rice (Oryza sp., var.Cocodrie, RICE); test: as above; details: PRE emergent, 14 days after application, rating scale 0-100
Procedure, shortened: as §1

Structure (SMILES): Cn1c(C(F)(F)F)cc(=O)n(-c2cc(C(=O)NN(Cc3ccccc3)Cc3ccccc3)c(Cl)cc2F)c1=O [Compound 1-29]
- phytotoxicity rating ECHCO ([1]; 63 g ai/ha): 55
- phytotoxicity rating ECHCO ([1]; 250 g ai/ha): 100
- phytotoxicity rating XANST ([2]; 63 g ai/ha): 0
- phytotoxicity rating XANST ([2]; 250 g ai/ha): 90
- phytotoxicity rating AMBEL ([3]; 63 g ai/ha): 75
- phytotoxicity rating AMBEL ([3]; 250 g ai/ha): 100
- phytotoxicity rating SETVI ([4]; 63 g ai/ha): 99
- phytotoxicity rating SETVI ([4]; 250 g ai/ha): 100
- phytotoxicity rating IPOHE ([5]; 63 g ai/ha): 90
- phytotoxicity rating IPOHE ([5]; 250 g ai/ha): 100
- phytotoxicity rating SORHA ([6]; 63 g ai/ha): 99
- phytotoxicity rating SORHA ([6]; 250 g ai/ha): 100
- phytotoxicity rating CHEAL ([7]; 63 g ai/ha): 100
- phytotoxicity rating CHEAL ([7]; 250 g ai/ha): 100
- phytotoxicity rating DIGSA ([8]; 63 g ai/ha): 85
- phytotoxicity rating DIGSA ([8]; 250 g ai/ha): 100
- phytotoxicity rating AMARE ([9]; 63 g ai/ha, scale 0-100 (0 no damage, 100 complete death)): 100
- phytotoxicity rating AMARE ([9]; 250 g ai/ha, scale 0-100): 100
- phytotoxicity rating CASOB ([10]; 63 g ai/ha): 50
- phytotoxicity rating CASOB ([10]; 250 g ai/ha): 100
- phytotoxicity rating ABUTH ([11]; 63 g ai/ha): 100
- phytotoxicity rating ABUTH ([11]; 250 g ai/ha): 100
- crop damage rating CORN ([12]; 63 g ai/ha): 10
- crop damage rating CORN ([12]; 250 g ai/ha): 50
- crop damage rating RICE ([13]; 63 g ai/ha): 0
- crop damage rating RICE ([13]; 250 g ai/ha): 10
- phytotoxicity rating ECHCG ([14]; 63 g ai/ha): 55
- phytotoxicity rating ECHCG ([14]; 250 g ai/ha): 100
- phytotoxicity rating XANST ([15]; 63 g ai/ha): 0
- phytotoxicity rating XANST ([15]; 250 g ai/ha): 90
- phytotoxicity rating AMBEL ([16]; 63 g ai/ha): 75
- phytotoxicity rating AMBEL ([16]; 250 g ai/ha): 100
- phytotoxicity rating SETVI ([17]; 63 g ai/ha): 99
- phytotoxicity rating SETVI ([17]; 250 g ai/ha): 100
- phytotoxicity rating IPOHE ([18]; 63 g ai/ha): 90
- phytotoxicity rating IPOHE ([18]; 250 g ai/ha): 100
- phytotoxicity rating SORHA ([19]; 63 g ai/ha): 99
- phytotoxicity rating SORHA ([19]; 250 g ai/ha): 100
- phytotoxicity rating CHEAL ([20]; 63 g ai/ha): 100
- phytotoxicity rating CHEAL ([20]; 250 g ai/ha): 100
- phytotoxicity rating DIGSA ([21]; 63 g ai/ha): 85
- phytotoxicity rating DIGSA ([21]; 250 g ai/ha): 100
- phytotoxicity rating AMARE ([22]; 63 g ai/ha): 100
- phytotoxicity rating AMARE ([22]; 250 g ai/ha): 100
- phytotoxicity rating CASOB ([23]; 63 g ai/ha): 50
- phytotoxicity rating CASOB ([23]; 250 g ai/ha): 100
- phytotoxicity rating ABUTH ([24]; 63 g ai/ha): 100
- phytotoxicity rating ABUTH ([24]; 250 g ai/ha): 100
- crop damage rating CORN ([25]; 63 g ai/ha): 10
- crop damage rating CORN ([25]; 250 g ai/ha): 50
- crop damage rating RICE ([26]; 63 g ai/ha): 0
- crop damage rating RICE ([26]; 250 g ai/ha): 10
